Reference: patent US20100189807A1, “Use of an ozone / oxygen mixture as a primary anticancer therapy via intraperitoneal insufflation” (priority 2009, published 2010)

Columns and labels:
[1] = inhaled ozone; cited from earlier work
[2] = Hematological and clinical chemistry blood parameters; assay type: in vivo, New Zealand White (NZW) rabbit
Experimental: Arterial blood samples from the central auricular artery of the left tumor free ear were taken on day 14 post inoculation (directly before the first gas insufflation/sham treatment) and on day 19 post inoculation (24 h after the last gas insufflation/sham treatment). Additional blood samples were taken on day 90 from the O3/O2-rem animals (FIG. 1a). For hematological investigations we used an autoanalyzer (Vet abc™ Animal Blood Counter, ABX Diagnostics, Goettingen, Germany), that has been carefully adjusted and validated for the analysis of rabbit blood. For differential blood counts the RBC count was determined together with the hematocrit (HCT) and hemoglobin (HGB). […] Data were expressed as mean values±SEM. For clinical chemistry investigations creatinine, GOT, and GPT values were measured with the Reflovet® Plus system (Roche Diagnostics GmbH, Mannheim, Germany) to monitor for kidney and liver functions.
For comparison of survival rates of the three experimental groups the logrank test was performed considering p values<0.05 as significant. The survival probability of rabbits calculated from the time of tumor cell inoculation until day 90 was depicted according to the Kaplan-Meier method. […] Statistical differences in mean body weight between the experimental groups were evaluated at daily intervals with the unpaired Student's t test with two tail p values. […]

[3] = tested on: VX2 auricular carcinoma; test: Therapy of auricular VX2 carcinoma in rabbits by intraperitoneal gas insufflation (survival, tumor clearance, lung metastases); assay type: in vivo, New Zealand White (NZW) rabbit; conditions: n=14 (O3/O2), n=13 (O2)

Row | Compound | grade of adverse effect (weight loss) [1] | RBC ([2]; d 14, directly before the first insufflation) | RBC ([2]; d 19, 24 h after the last insufflation) | number of rabbits with remission of the tumor [3]
1 | O=[O+][O-] [ozone] | grade II | – | – | –
2 | O=O [O2] | – | 5.68 10^6/mm^3 | 5.31 10^6/mm^3 | two
